The subject of data set [1] is Bach1 mRNA. Put plainly: Initial screen: Bach1 mRNA knock-down in human A549 cells (96-well transfection, quantitative RT-PCR). It counts as cell-based. As to conditions: Bach1 mRNA, 10 nM siNA, human A549 cells, n = 2, mean ± S.D., normalized to GAPDH and non-targeting control, 24 hrs post-transfection. The procedure:
(§1) All cells were obtained from ATCC (Manassas, Va.) unless otherwise indicated. Cells were grown and transfected under standard conditions, which are detailed below for each cell line.
(§2) Cells were plated in all wells of a tissue-culture treated, 96-well plate at a final count of 5000 cells/well in 100 μL of the appropriate culture media. The cells were cultured for 24 hours after plating at 37° C. in the presence of 5% CO2.
(§3) After 24 hours, complexes containing siNA and RNAiMax were created as follows: A solution of RNAiMax diluted 33-fold in OPTI-MEM was prepared. […] After incubation of RNAiMax/OPTI-MEM solution at room temperature for 5 min, an equal volume of the siNA solution and the RNAiMax solution were added together for each of the siNAs.
(§4) This solution was incubated at room temperature for 20 minutes. After incubation, 20 uL of the solution was added to each of the relevant wells. The final concentration of siNA in each well was 10 nM and the final volume of RNAiMax in each well was 0.3 ul. […]
(§5) Briefly, a 60 uL (1 plate) or 110 uL (2 plates) of the Lysis Solution with DNase I was dispensed into each well of the Lysis Buffer Plate (twin.tec full skirt plate). The lysis buffer and stop plates were stored at 4° C. until the cells were washed.
(§6) The plate was spun at 1100 rpm for 5 minutes. The culture medium was aspirated and discarded from the wells of the culture plate. The lysis was performed automatically using a BioMek FX instrument and method. After the Biomek method was completed, the lysis plate was incubated for 2 min at room temperature. The lysis plate can be stored for 2 hours at 4° C., or at −20° C. or −80° C. for two months.
(§7) Each well of the reverse transcription plate required 10 uL of 2× reverse transcriptase Buffer, 1 uL of 20× reverse transcription enzyme and 2 uL of nuclease-free water. The reverse transcription master mix was prepared by mixing 2× reverse transcription buffer, 20× reverse transcription enzyme mix, and nuclease-free water. 13 uL of the reverse transcription master mix was dispensed into each well of the reverse transcription plate (semi-skirted). A separate reverse transcription plate was prepared for each cell plate. The plate was loaded onto a Biomek NX or Biomek FX Dual −96 and the Biomek method was run. The program is programmed to automatically added 7 uL of lysate from the cell lysis procedure described above into each well of the reverse transcription plate. The plate is sealed and spun on a centrifuge (1000 rpm for 30 seconds) to settle the contents to the bottom of the reverse transcription plate. The plate is placed in a thermocycler at 37° C. for 60 min, 95° C. for 5 min, and 4° C. until the plate is removed from the thermocycler. Upon removal, if not used immediately, the plate was frozen at −20° C.
(§8) A series of probes and primers were used to detect the various mRNA transcripts of the genes of Bach1, HMOX-1, and GAPDH in mouse and human cell lines. The assays were performed on an ABI 7900 instrument, according to the manufacturer's instructions. […] The PCR reactions were carried out at 50° C. for 2 min, 95° C. for 20 min followed by 40 cycles at 95° C. for 15 secs and 60° C. for 1 min
(§9) Within each experiment, the […] was set in the exponential phase of the amplification curve, and based on the intersection point of the baselines with the amplification curve, a Ct value was assigned by the instrument.
(§10) The expression level of the gene of interest and % knock-down was calculated using Comparative Ct method:
(§11) ΔCt=ΔCt(Target siRNA)−ΔCt(NTC)
(§12) Relative expression level=2^−ΔΔCt
(§13) The non-targeting control siNA was, unless otherwise indicated, chosen as the value against which to calculate the % knock-down, because it is the most relevant control.

In data set [2] the test system is Bach1 mRNA. Kind of data set: Initial screen: Bach1 mRNA knock-down in mouse NIH 3T3 cells (96-well transfection, quantitative RT-PCR). The following applies: mouse NIH3T3 cells, n = 2, 24 hrs post-transfection, protocol 10 nM siNA. It counts as cell-based. As to the method:
as §1, §2, §3, §4, §5, §6, §7, §8, §9, §10, §11, §12, §13

[invAb] = inverted abasic unit; d = 2'-deoxy (DNA); m = 2'-O-methyl; r = 2'-OH (RNA); f = 2'-fluoro

On to “29974-DC: Bach1 siNA duplex, target site 1739 (mouse); sense B GAGGuGAAGcuGccAuucA TTB (SEQ 97); antisense UGAAuGGcAGcuucAccucUU (SEQ 98) (sense GAGGUGAAGCUGCCAUUCATT; antisense UGAAUGGCAGCUUCACCUCUU; sense: DNA at AGT, 2'-fluoro at CU, [invAb] at 5' end, 3' end, backbone not given here; antisense: sugars from the 5' end rrrmfmmfmmffffmffffmm, backbone not given here)”, for which the figures for the “% KD” value with Bach1 mRNA [1] and with Bach1 mRNA [2] were −4.3 ± 15.5% and −12 ± 6.9%, respectively.
The like results for “29975-DC: Bach1 siNA duplex, target site 1893 (mouse); sense B GucGcAAGAGGAAAcuuGA TTB (SEQ 99); antisense UCAAGuuuccucuuGcGAcUU (SEQ 100) (sense GUCGCAAGAGGAAACUUGATT; antisense UCAAGUUUCCUCUUGCGACUU; sense: DNA at AGT, 2'-fluoro at CU, [invAb] at 5' end, 3' end, backbone not given here; antisense: sugars from the 5' end rrrmmfffffffffmfmmfmm, backbone not given here)” were, in that order, 59 ± 8.3% and 40.4 ± 0.4%.
The like results for “29976-DC: Bach1 siNA duplex, target site 1585 (mouse); sense B cuGcucAAGcAAcuuGGAA TTB (SEQ 101); antisense UUCcAAGuuGcuuGAGcAGUU (SEQ 102) (sense CUGCUCAAGCAACUUGGAATT; antisense UUCCAAGUUGCUUGAGCAGUU; sense: DNA at AGT, 2'-fluoro at CU, [invAb] at 5' end, 3' end, backbone not given here; antisense: sugars from the 5' end rrrfmmmffmfffmmmfmmmm, backbone not given here)” were, in that order, 17.5 ± 1.7% and −1.2 ± 11.6%.
Turning to “29977-DC: Bach1 siNA duplex, target site 1640 (mouse); sense B GAGccuuGcccGuAuGcuu TTB (SEQ 103); antisense AAGcAuAcGGGcAAGGcucUU (SEQ 104) (sense GAGCCUUGCCCGUAUGCUUTT; antisense AAGCAUACGGGCAAGGCUCUU; sense: DNA at AGT, 2'-fluoro at CU, [invAb] at 5' end, 3' end, backbone not given here; antisense: sugars from the 5' end rrrfmfmfmmmfmmmmfffmm, backbone not given here)”, the “% KD” value in the data set with Bach1 mRNA [1] is reported as 18.9 ± 0.3%; in the data set on Bach1 mRNA [2] it was 53 ± 2.9%.
In the case of “29978-DC: Bach1 siNA duplex, target site 403 (mouse); sense B GGuuAAAGGAuuuGAAccu TTB (SEQ 105); antisense AGGuucAAAuccuuuAAccUU (SEQ 106) (sense GGUUAAAGGAUUUGAACCUTT; antisense AGGUUCAAAUCCUUUAACCUU; sense: DNA at AGT, 2'-fluoro at CU, [invAb] at 5' end, 3' end, backbone not given here; antisense: sugars from the 5' end rrrfffmmmffffffmmffmm, backbone not given here)”, the “% KD” value in the data set with Bach1 mRNA [1] was 14.4 ± 0^ %; with Bach1 mRNA [2], 3.3 ± 3.8%.
For the substance “29979-DC: Bach1 siNA duplex, target site 1523 (mouse); sense B cGGAcuuucAcAAcucucA TTB (SEQ 107); antisense UGAGAGuuGuGAAAGuccGUU (SEQ 108) (sense CGGACUUUCACAACUCUCATT; antisense UGAGAGUUGUGAAAGUCCGUU; sense: DNA at AGT, 2'-fluoro at CU, [invAb] at 5' end, 3' end, backbone not given here; antisense: sugars from the 5' end rrrmmmffmfmmmmmfffmmm, backbone not given here)”, the “% KD” value in the data set on Bach1 mRNA [1] is on record as −18.1 ± 18^ %; in the data set on Bach1 mRNA [2], 62.4 ± 2.6%.
Consider “29980-DC: Bach1 siNA duplex, target site 1939 (mouse); sense B cGAGAAGcuGcAAAGuGAA TTB (SEQ 109); antisense UUCAcuuuGcAGcuucucGUU (SEQ 110) (sense CGAGAAGCUGCAAAGUGAATT; antisense UUCACUUUGCAGCUUCUCGUU; sense: DNA at AGT, 2'-fluoro at CU, [invAb] at 5' end, 3' end, backbone not given here; antisense: sugars from the 5' end rrrmffffmfmmffffffmmm, backbone not given here)”, for which the “% KD” value is 91.3 ± 0.9% in the data set with Bach1 mRNA [1] and 49.2 ± 1.1% in the data set on Bach1 mRNA [2].
Consider “29981-DC: Bach1 siNA duplex, target site 331 (mouse); sense B cAGcuAcuuccAcucGAGA TTB (SEQ 111); antisense UCUcGAGuGGAAGuAGcuGUU (SEQ 112) (sense CAGCUACUUCCACUCGAGATT; antisense UCUCGAGUGGAAGUAGCUGUU; sense: DNA at AGT, 2'-fluoro at CU, [invAb] at 5' end, 3' end, backbone not given here; antisense: sugars from the 5' end rrrfmmmfmmmmmfmmffmmm, backbone not given here)”, for which the “% KD” value came to 1 ± 0.9% with Bach1 mRNA [1] and 3.5 ± 5% in the data set with Bach1 mRNA [2].
Turning to “29982-DC: Bach1 siNA duplex, target site 1752 (mouse); sense B cAuucAAuGcccAAcGGAu TTB (SEQ 113); antisense AUCcGuuGGGcAuuGAAuGUU (SEQ 114) (sense CAUUCAAUGCCCAACGGAUTT; antisense AUCCGUUGGGCAUUGAAUGUU; sense: DNA at AGT, 2'-fluoro at CU, [invAb] at 5' end, 3' end, backbone not given here; antisense: sugars from the 5' end rrrfmffmmmfmffmmmfmmm, backbone not given here)”, the “% KD” value with Bach1 mRNA [1] is recorded as −9.2 ± 4.6%; with Bach1 mRNA [2], 9 ± 8.9%.
In the case of “29983-DC: Bach1 siNA duplex, target site 363; sense B GAuuuGAAccuuuAAuucA TTB (SEQ 115); antisense UGAAuuAAAGGuucAAAucUU (SEQ 116) (sense GAUUUGAACCUUUAAUUCATT; antisense UGAAUUAAAGGUUCAAAUCUU; sense: DNA at AGT, 2'-fluoro at CU, [invAb] at 5' end, 3' end, backbone not given here; antisense: sugars from the 5' end rrrmffmmmmmfffmmmffmm, backbone not given here)”, the “% KD” value in the data set on Bach1 mRNA [1] was determined as 74.7 ± 1.8%; in the data set on Bach1 mRNA [2], 49 ± 2%.
For “29985-DC: Bach1 siNA duplex, target site 1312; sense B AGGcuucuGGAGuGAcAuu TTB (SEQ 119); antisense AAUGucAcuccAGAAGccuUU (SEQ 120) (sense AGGCUUCUGGAGUGACAUUTT; antisense AAUGUCACUCCAGAAGCCUUU; sense: sugars from the 5' end dddfffffddddfrdfdffdd, [invAb] at 5' end, 3' end, backbone not given here; antisense: sugars from the 5' end rrrmffmffffmmmmmfffmm, backbone not given here)”, in that order: 18.6 ± 6.5% and 1.3 ± 4.5%.

The values above are taken from US20120016010A1, “RNA Interference Mediated Inhibition of BTB and CNC Homology 1, Basic Leucine Zipper Transcription Factor 1 (BACH1) Gene Expression Using Short Interfering Nucleic Acid (siNA)” (Merck Sharp & Dohme Corp, priority 2009, published 2012).
